Experimental data taken from the supplement of paper PMC6288085.

How the values were obtained:
[1] = tested on: Caenorhabditis elegans N2; test: food intake (delta OD600 day1-day4, bacterial clearance) (OD600 units); higher = more food eaten; details: genotype: wt, 72 h
Caenorhabditis elegans = test: as above; details: 72 h
Procedure: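 C. elegans N2 or ser-5(vq1) knockout adults in 96-well plates treated with olanzapine, quetiapine, ziprasidone or serotonin over a dose range. Food intake was measured as bacterial clearance, delta OD600 from day 1 to day 4 per well (14-21 replicate wells of 5-15 animals).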

CN1CC2c3ccccc3Oc3ccc(Cl)cc3C2C1 (stereo not drawn) [Asenapine]
[1]
Details	food intake
0.01 µM	0.00861
0.03 µM	0.0107
0.1 µM	0.0122
0.3 µM	0.0127
1 µM	0.0127
3 µM	0.0112

CN(C)CCCN1c2ccccc2Sc2ccc(Cl)cc21 [Chlorpromazine]
[1]
Details	food intake
0.05 µM	0.0145
0.1 µM	0.0149
0.2 µM	0.0171
0.5 µM	0.0191
0.75 µM	0.0204
1 µM	0.0201
2 µM	0.0233
5 µM	0.0214

CN(C)CC/C=C1/c2ccccc2Sc2ccc(Cl)cc21 [Chlorprothixene]
[1]
Details	food intake
0.4 µM	0.0203
2 µM	0.0255
10 µM	0.0194

CN1CCN(C2=Nc3ccccc3Oc3ccc(Cl)cc32)CC1 [Loxapine]
[1]
Details	food intake
0.05 µM	0.0139
0.5 µM	0.0143
5 µM	0.0196
10 µM	0.0212
20 µM	0.0217
50 µM	0.0234
100 µM	0.023
200 µM	0.0195

OCCOCCN1CCN(C2=Nc3ccccc3Sc3ccccc32)CC1 [Quetiapine]
food intake, Caenorhabditis elegans
Details	0.1 µM	3 µM	10 µM	30 µM	100 µM	200 µM
genotype: ser-5(vq1)	0.00593	0.00574	0.00662	0.00674	0.00602	0.0055
genotype: wt	0.00754	0.00775	0.00993	0.0118	0.0127	0.0103

[1]
Details	food intake
0.1 µM	0.00598
3 µM	0.00727
10 µM	0.00847
30 µM	0.0103
100 µM	0.0115
200 µM	0.0118

Cc1cc2c(s1)Nc1ccccc1N=C2N1CCN(C)CC1 [Olanzapine]
food intake, Caenorhabditis elegans
Details	0.5 µM	5 µM	20 µM	50 µM	100 µM	200 µM
genotype: ser-5(vq1)	0.0069	0.00729	0.0081	0.00845	0.00859	0.00839
genotype: wt	0.00731	0.00919	0.0102	0.0117	0.0138	0.0148

[1]
Details	food intake
0.05 µM	0.0155
0.5 µM	0.0153
5 µM	0.0152
10 µM	0.0159
20 µM	0.015
50 µM	0.0149
100 µM	0.0184
200 µM	0.0186

O=C1Cc2cc(CCN3CCN(c4nsc5ccccc45)CC3)c(Cl)cc2N1 [Ziprasidone]
food intake, Caenorhabditis elegans
Details	0.01 µM	0.03 µM	0.1 µM	0.3 µM	1 µM	3 µM
genotype: ser-5(vq1)	0.00508	0.00569	0.00662	0.00664	0.00712	0.0061
genotype: wt	0.00821	0.00974	0.0135	0.0153	0.0145	0.0145

[1]
Details	food intake
0.01 µM	0.00881
0.03 µM	0.0107
0.1 µM	0.0128
0.3 µM	0.0136
1 µM	0.0136
3 µM	0.0138

NCCc1c[nH]c2ccc(O)cc12 [Serotonin]
food intake, Caenorhabditis elegans
Details	100 µM	500 µM	1000 µM	2000 µM	5000 µM	10000 µM
genotype: ser-5(vq1)	0.00664	0.00869	0.0118	0.0155	0.0182	0.0182
genotype: wt	0.00773	0.00951	0.0142	0.0176	0.0199	0.0189
